The values below are quoted from earlier work in US8454566B2, “Methods and compositions for the inhibition of biofilms on medical devices” (Medtronic MiniMed, Inc., priority 2003, dated 2013).

Each structure is given as a SMILES string.

In this data set the target is avidin (Gallus gallus, UniProt P02701). To be noted: avidin tetramer binds 4 biotin molecules in solution, noncovalent interaction.
Chain of avidin (P02701 25-152): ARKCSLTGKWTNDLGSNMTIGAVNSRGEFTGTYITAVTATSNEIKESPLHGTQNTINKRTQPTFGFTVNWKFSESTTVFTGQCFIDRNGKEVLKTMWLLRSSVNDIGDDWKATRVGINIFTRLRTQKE

Turning to `O=C(O)CCCC[C@@H]1SC[C@@H]2NC(=O)N[C@@H]21` [biotin], the binding constant entry was “about 10^15 M^−1”.
